Assay results reported in ChEMBL document CHEMBL5046233, “Nitroxoline and its derivatives are potent inhibitors of metallo-β-lactamases” (Eur J Med Chem, 2022).
In brackets after ≈: the same amount, converted by molar mass. Activity calls are given as the source filed them. The calls are words filed in the database; no cut-off is given here.

How the values were obtained:
Escherichia coli [1] = details: T2228
Pseudomonas aeruginosa [2] = assay: Antimicrobial activity against Pseudomonas aeruginosa T2229 expressing SPM-1 assessed as inhibition of bacterial growth by CLSI protocol based broth microdilution assay; format: functional
Escherichia coli [3] = assay: Antimicrobial activity against Escherichia coli clinical isolate T2228 expressing VIM-1 assessed as inhibition of bacterial growth by CLSI protocol based broth microdilution assay; format: functional
Escherichia coli [4] = assay: Antimicrobial activity against Escherichia coli T2435 expressing KPC-2 assessed as inhibition of bacterial growth by CLSI protocol based broth microdilution assay; format: functional
Escherichia coli [5] = assay: Antimicrobial activity against Escherichia coli T2351 expressing NDM-5 assessed as inhibition of bacterial growth by CLSI protocol based broth microdilution assay; format: functional
Klebsiella pneumoniae [6] = assay: Antimicrobial activity against Klebsiella pneumoniae clinical isolate T2301 expressing NDM-1 assessed as inhibition of bacterial growth by CLSI protocol based broth microdilution assay; format: functional
Enterobacter cloacae [7] = assay: Antimicrobial activity against Enterobacter cloacae T2311 expressing NDM-1 assessed as inhibition of bacterial growth by CLSI protocol based broth microdilution assay; format: functional
Klebsiella pneumoniae [8] = assay: Antimicrobial activity against Klebsiella pneumoniae T2216 expressing VIM-1 assessed as inhibition of bacterial growth by CLSI protocol based broth microdilution assay; format: functional
Klebsiella pneumoniae [9] = assay: Antimicrobial activity against Klebsiella pneumoniae T2301 expressing NDM-1 assessed as assessed as inhibition of bacterial growth at 0.5XMIC measured after 24 hrs by time-kill assay; format: functional, organism-based
Escherichia coli [10] = assay: Antimicrobial activity against Escherichia coli T2359 expressing VIM-1 assessed as inhibition of bacterial growth at 0.5XMIC for 6 hrs by CLSI protocol based broth microdilution assay; format: functional, organism-based
Enterobacter cloacae [11] = assay: Antimicrobial activity against Enterobacter cloacae T2353 expressing VIM-1 assessed as inhibition of bacterial growth by CLSI protocol based broth microdilution assay; format: functional
Escherichia coli [12] = assay: Antimicrobial activity against Escherichia coli T2433 expressing OXA-48 assessed as inhibition of bacterial growth by CLSI protocol based broth microdilution assay; format: functional
Citrobacter freundii [13] = assay: Antimicrobial activity against Citrobacter freundii expressing T2431 KPC-3 assessed as inhibition of bacterial growth by CLSI protocol based broth microdilution assay; format: functional
Escherichia coli [14] = assay: Antimicrobial activity against Escherichia coli T2359 expressing NDM-1 assessed as inhibition of bacterial growth by CLSI protocol based broth microdilution assay; format: functional
Enterobacter cloacae [15] = assay: Antimicrobial activity against Enterobacter cloacae T2218 expressing GIM-1 assessed as inhibition of bacterial growth by CLSI protocol based broth microdilution assay; format: functional
Klebsiella pneumoniae [16] = assay: Antimicrobial activity against Klebsiella pneumoniae T2301 expressing NDM-1 assessed as inhibition of bacterial growth at 0.5XMIC for 6 hrs by CLSI protocol based broth microdilution assay; format: functional, organism-based
Escherichia coli [17] = assay: Antimicrobial activity against Escherichia coli T2544 expressing VIM-1 assessed as inhibition of bacterial growth by CLSI protocol based broth microdilution assay; format: functional
Escherichia coli [18] = assay: Antimicrobial activity against Escherichia coli T2359 expressing VIM-1 assessed as assessed as inhibition of bacterial growth at 0.5XMIC measured after 24 hrs by time-kill assay; format: functional, organism-based
Pseudomonas aeruginosa [19] = assay: Antimicrobial activity against Pseudomonas aeruginosa T1098 expressing IMP-7 assessed as inhibition of bacterial growth by CLSI protocol based broth microdilution assay; format: functional
Klebsiella pneumoniae [20] = assay: Antimicrobial activity against Klebsiella pneumoniae T2432 expressing KPC-9 assessed as inhibition of bacterial growth by CLSI protocol based broth microdilution assay; format: functional
Citrobacter freundii [21] = assay: Antimicrobial activity against Citrobacter freundii T2354 expressing VIM-4 assessed as inhibition of bacterial growth by CLSI protocol based broth microdilution assay; format: functional
Serratia marcescens = assay: Antimicrobial activity against Serratia marcescens T2352 expressing NDM-1 assessed as inhibition of bacterial growth by CLSI protocol based broth microdilution assay; format: functional
Pseudomonas aeruginosa [22] = assay: Antimicrobial activity against Pseudomonas aeruginosa T2325 expressing IMP-1 assessed as inhibition of bacterial growth by CLSI protocol based broth microdilution assay; format: functional
Pseudomonas aeruginosa [23] = assay: Antimicrobial activity against Pseudomonas aeruginosa T2217 expressing VIM-2 assessed as inhibition of bacterial growth by CLSI protocol based broth microdilution assay; format: functional
Pseudomonas aeruginosa [24] = assay: Antimicrobial activity against Pseudomonas aeruginosa T2283 expressing VIM-2 assessed as inhibition of bacterial growth by CLSI protocol based broth microdilution assay; format: functional
Pseudomonas aeruginosa [25] = assay: Antimicrobial activity against Pseudomonas aeruginosa T2357 expressing VIM-1 assessed as inhibition of bacterial growth by CLSI protocol based broth microdilution assay; format: functional
Pseudomonas aeruginosa [26] = assay: Antimicrobial activity against Pseudomonas aeruginosa T2282 expressing VIM-2 assessed as inhibition of bacterial growth by CLSI protocol based broth microdilution assay; format: functional
[27] = Inhibition of recombinant NDM-1 (unknown origin) using fluorocillin as substrate at 10 uM incubated for 30 mins by fluorescence based assay; details: Bacteria
Bacteria [28] = assay: Inhibition of recombinant IMP-1 (unknown origin) using fluorocillin as substrate at 30 uM incubated for 30 mins by fluorescence based assay
[29] = Inhibition of recombinant NDM-1 (unknown origin) using fluorocillin as substrate at 3 uM incubated for 30 mins by fluorescence based assay; details: Bacteria
Bacteria [30] = assay: Inhibition of recombinant VIM-1 (unknown origin) using fluorocillin as substrate at 3 uM incubated for 30 mins by fluorescence based assay
Bacteria [31] = assay: Inhibition of recombinant VIM-1 (unknown origin) using fluorocillin as substrate at 10 uM incubated for 30 mins by fluorescence based assay
Bacteria [32] = assay: Inhibition of recombinant IMP-1 (unknown origin) using fluorocillin as substrate at 3 uM incubated for 30 mins by fluorescence based assay
[33] = Cytotoxicity against human HUVEC cells assessed as metabolic activity measured after 24 hrs by cell-titer blue assay; format: toxicity, cell-based
Bacteria [34] = assay: Inhibition of recombinant IMP-1 (unknown origin) using fluorocillin as substrate at 10 uM incubated for 30 mins by fluorescence based assay
Bacteria [35] = assay: Inhibition of recombinant VIM-1 (unknown origin) using fluorocillin as substrate at 30 uM incubated for 30 mins by fluorescence based assay
[36] = Inhibition of recombinant NDM-1 (unknown origin) using fluorocillin as substrate at 30 uM incubated for 30 mins by fluorescence based assay; details: Bacteria

GENTAMICIN gave an MIC (Escherichia coli [1]) of 0.002 µg/mL.
Work on `C[C@@H](O)[C@H]1C(=O)N2C(C(=O)O)=C(SCCNC=N)C[C@H]12` [IMIPENEM ANHYDROUS] yielded an MIC (Pseudomonas aeruginosa [2]) of 0.512 µg/mL (≈ 1.71 µM), an MIC (Escherichia coli [3]) of 0.008 µg/mL (≈ 0.0267 µM) and an MIC (Escherichia coli [4]) of 0.004 µg/mL (≈ 0.0134 µM). It also gave an MIC (Escherichia coli [5]) of 0.008 µg/mL (≈ 0.0267 µM), an MIC (Klebsiella pneumoniae [6]) of 0.016 µg/mL (≈ 0.0534 µM) and an MIC (Enterobacter cloacae [7]) of 0.008 µg/mL (≈ 0.0267 µM). The MIC (Klebsiella pneumoniae [8]) was 0.004 µg/mL (≈ 0.0134 µM), the inhibition (Klebsiella pneumoniae [9]) was “Active” and the inhibition (Escherichia coli [10]) was “Active”. The MIC (Enterobacter cloacae [11]) was 0.008 µg/mL (≈ 0.0267 µM), the MIC (Escherichia coli [12]) was 0.002 µg/mL (≈ 0.00668 µM) and the MIC (Citrobacter freundii [13]) was 0.008 µg/mL (≈ 0.0267 µM). The MIC (Escherichia coli [14]) was 0.128 µg/mL (≈ 0.428 µM), the MIC (Enterobacter cloacae [15]) was 0.002 µg/mL (≈ 0.00668 µM) and the inhibition (Klebsiella pneumoniae [16]) was “Active”. The MIC (Escherichia coli [17]) was 0.032 µg/mL (≈ 0.107 µM), the inhibition (Escherichia coli [18]) was “Active” and the MIC (Pseudomonas aeruginosa [19]) was 0.128 µg/mL (≈ 0.428 µM). For the same molecule, the MIC (Klebsiella pneumoniae [20]) was 0.032 µg/mL (≈ 0.107 µM), the MIC (Citrobacter freundii [21]) was 2 µg/mL (≈ 6.68 µM) and the MIC (Serratia marcescens) was 0.256 µg/mL (≈ 0.855 µM). It also gave an MIC (Pseudomonas aeruginosa [22]) of 0.032 µg/mL (≈ 0.107 µM), an MIC (Pseudomonas aeruginosa [23]) of 0.256 µg/mL (≈ 0.855 µM) and an MIC (Pseudomonas aeruginosa [24]) of 0.032 µg/mL (≈ 0.107 µM). It also gave an MIC (Pseudomonas aeruginosa [25]) of 0.256 µg/mL (≈ 0.855 µM) and an MIC (Pseudomonas aeruginosa [26]) of 0.256 µg/mL (≈ 0.855 µM).
For `O=[N+]([O-])c1ccc(O)c2ncccc12` [NITROXOLINE], the inhibition [27] was 81%, the inhibition (Bacteria [28]) was 95% and the inhibition [29] was < 20%. The inhibition (Bacteria [30]) was < 20%, the inhibition (Bacteria [31]) was 31% and the inhibition (Bacteria [32]) was < 20%. For the same molecule, the IC50 at 24 h [33] was 283 µg/mL (≈ 1490 µM), the inhibition (Bacteria [34]) was 42% and the inhibition (Bacteria [35]) was 75%. The inhibition [36] was 99%.
Molecule `CO/N=C(\C(=O)N[C@@H]1C(=O)N2C(C(=O)O)=C(COC(N)=O)CS[C@H]12)c1ccco1` [CEFUROXIME] has an MIC (Escherichia coli [3]) of 1.02 µg/mL (≈ 2.41 µM) and an MIC (Klebsiella pneumoniae [6]) of 8.19 µg/mL (≈ 19.3 µM).
